In US9351965B2, “Indazole derivatives useful as ERK inhibitors” (Merck Sharp & Dohme Corp., priority 2010, dated 2016):

Target: fully phosphorylated, active Mouse ERK2 protein (Mus musculus (Mouse), UniProt P63085)
Test: Active ERK2 (aERK) IMAP assay
Assay type: biochemical
Conditions: IMAP fluorescence polarization; 30 μM ATP; 30 minute pre-incubation
Procedure: 14 μl of kinase buffer (10 mM Tris.HCl pH 7.2, 10 mM MgCl2, 0.01% Tween-20, 1 mM DTT) containing 0.4 ng unphosphorylated Mouse ERK2 protein was added to each well of a black 384-well assay plate. […] DMSO concentration during initial incubation is 6.7%. […] DMSO concentration during ERK activation was 4%. After one hour, reactions were terminated by addition of 60 μl IMAP detections beads in binding buffer (Molecular Devices). Binding was allowed to equilibrate for 30 minutes before reading the plate on an LJL Analyst Fluorescence Polarization plate reader.
Active ERK2 (aERK) Assay:
Activated ERK2 activity was also determined in the IMAP assay format using the procedure outlined above. […] Reactions proceeded for 30 minutes before termination by addition of 60 μl IMAP detection beads in binding buffer. Plates were read as above after 30 minute binding equilibration.

Sequence of fully phosphorylated, active Mouse ERK2 protein (P63085 whole entry): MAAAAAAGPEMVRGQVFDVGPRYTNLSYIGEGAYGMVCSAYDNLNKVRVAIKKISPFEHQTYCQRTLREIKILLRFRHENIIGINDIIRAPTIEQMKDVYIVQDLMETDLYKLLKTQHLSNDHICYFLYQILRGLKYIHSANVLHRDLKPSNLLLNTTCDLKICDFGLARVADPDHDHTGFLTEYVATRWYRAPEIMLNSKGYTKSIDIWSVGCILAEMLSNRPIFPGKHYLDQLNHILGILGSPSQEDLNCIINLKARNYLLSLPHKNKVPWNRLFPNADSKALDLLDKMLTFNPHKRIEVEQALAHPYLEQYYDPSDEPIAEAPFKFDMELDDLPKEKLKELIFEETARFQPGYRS

SMILES: COc1cccc(F)c1C[C@@]1(O)CCC[C@@H](NC(=O)c2ccc3[nH]nc(-c4ccc5nc(C)sc5c4)c3c2)C1 [compound 24, N-[3(S)-[(2-fluoro-6-methoxyphenyl)methyl]-3-hydroxy-1(R)-cyclohexyl]-3-(2-methyl-6-benzothiazolyl)-1H-indazole-5-carboxamide]
- IC50: 8.9 nM

SMILES: Cc1cc(-c2n[nH]c3ccc(C(=O)N[C@@H]4CCC[C@](O)(Cn5ncccc5=O)C4)cc23)ccn1 (relative stereo) [compound 83, N-[trans-3-hydroxy-3-[(6-oxo-1(6h)-pyridazinyl)methyl]cyclohex-yl]-3-(2-methyl-4-pyridinyl)-1H-indazole-5-carboxamide]
- IC50: 1000 nM

SMILES: Cc1cc(-c2n[nH]c3ccc(C(=O)N[C@@H]4CCC[C@](O)(Cn5c(=O)ccc6ccccc65)C4)cc23)ccn1 (relative stereo) [compound 89, N-[trans-3-hydroxy-3-[(2-oxo-1(2h)-quinolinyl)methyl]cyclohex-yl]-3-(2-methyl-4-pyridinyl)-1H-indazole-5-carboxamide]
- IC50: 714 nM

SMILES: Cc1cc(-c2n[nH]c3ccc(C(=O)NC4CCCC(O)(Cc5ccccc5F)C4)cc23)ccn1 (single isomer, unassigned) [compound 2, N-[3-[(2-fluorophenyl)methyl]-3-hydroxycyclo-hexyl]-3-(2-methyl-4-pyridinyl)-1H-indazole-5-carboxamide]
- IC50: 20.8 nM

SMILES: Cc1cc(-c2n[nH]c3ccc(C(=O)N[C@@H]4CCC[C@@](O)(Cn5c(C)nc6cnccc65)C4)cc23)ccn1 (relative stereo) [compound 77, N-[cis-3-hydroxy-3-[(2-methyl-1H-imidazo[4,5-c]pyridiN-1-yl)methyl]cyclohexyl]-3-(2-methyl-4-pyridinyl)-1H-indazole-5-carboxamide]
- IC50: 1000 nM

SMILES: Cc1cc(-c2n[nH]c3ccc(C(=O)N[C@@H]4CCC[C@@](O)(Cn5ncc6ccccc65)C4)cc23)ccn1 [compound 66, N-[3(S)-hydroxy-3-(1H-indazol-1-ylmethyl)-1(R)-cyclohexyl]-3-(2-methyl-4-pyridinyl)-1H-indazole-5-carboxamide]
- IC50: 7 nM

SMILES: Cc1cc(-c2n[nH]c3ccc(C(=O)NC4CCCC(Cc5ccc(F)cc5)(C(=O)O)C4)cc23)ccn1 (stereo not drawn) [compound 136, 1-[(4-fluorophenyl)methyl]-3-[[[3-(2-methyl-4-pyridinyl)-1H-indazol-5-yl]carbonyl]amino]cyclo-hexanecarboxylic acid]
- IC50: 302 nM

SMILES: Cc1cc(-c2n[nH]c3ccc(C(=O)NC4CCCC(CO)(Cc5c(F)cccc5F)C4)cc23)ccn1 (stereo not drawn) [compound 129, N-[3-[(2,6-difluorophenyl)methyl]-3-(hydroxymethyl)cyclohexyl]-3-(2-methyl-4-pyridinyl)-1H-indazole-5-carboxamide]
- IC50: 636 nM

SMILES: COCC1(Cc2ccccc2F)CCCN(NC(=O)c2ccc3[nH]nc(-c4ccnc(C)c4)c3c2)C1 (stereo not drawn) [compound 149, N-[3-[(2-fluorophenyl)methyl]-3-(methoxymethyl)-1-piperidinyl]-3-(2-methyl-4-pyridinyl)-1H-indazole-5-carboxamide]
- IC50: 937 nM

SMILES: Cc1cc(-c2n[nH]c3ccc(C(=O)NC4CCCC(Cn5ncc6ccncc65)C4)cc23)ccn1 (stereo not drawn) [compound 115, 3-(2-methyl-4-pyridinyl)-N-[3-(1H-pyrazolo[3,4-c]pyridin-1-ylmethyl)cyclohexyl]-1H-indazole-5-carboxamide]
- IC50: 33.8 nM

SMILES: Cc1cc(-c2n[nH]c3ccc(C(=O)N[C@@H]4CCC[C@@](O)(Cn5ncc6ccncc65)C4)cc23)ccn1 (relative stereo) [compound 80, N-[cis-3-hydroxy-3-(1H-pyrazolo[3,4-c]pyridin-1-ylmethyl)cyclohexyl]-3-(2-methyl-4-pyridinyl)-1H-indazole-5-carboxamide]
- IC50: 35.1 nM

SMILES: Cc1cc(-c2n[nH]c3ccc(C(=O)NC4CCCC(N)(Cc5ccccc5F)C4)cc23)ccn1 (stereo not drawn) [compound 152, N-[3-amino-3-[(2-fluorophenyl)methyl]cyclohexyl]-3-(2-methyl-4-pyridinyl)-1H-indazole-5-carboxamide]
- IC50: 514 nM

SMILES: Cc1cc(-c2n[nH]c3ccc(C(=O)NC4CCCC(CO)(Cc5c(F)cccc5F)C4)cc23)ccn1 (stereo not drawn) [compound 137, N-[3-[(2,6-difluorophenyl)methyl]-3-(hydroxymethyl)cyclohexyl]-3-(2-methyl-4-pyridinyl)-1H-indazole-5-carboxamide]
- IC50: 445 nM

SMILES: COc1cccc(F)c1C[C@@]1(O)CCC[C@@H](NC(=O)c2ccc3[nH]nc(-c4ccnc(OC(C)C)c4)c3c2)C1 [compound 25, N-[3(S)-[(2-fluoro-6-methoxyphenyl)methyl]-3-hydroxy-1(R)-cyclohexyl]-3-[2-(1-methylethoxy)-4-pyridinyl]-1H-indazole-5-carboxamide]
- IC50: 333 nM

SMILES: Cc1cc(-c2n[nH]c3ccc(C(=O)NC4CCCC(Oc5ccccc5F)C4)cc23)ccn1 (single isomer, unassigned) [compound 28, N-[3-(2-fluorophenoxy)cyclohexyl]-3-(2-methyl-4-pyridinyl)-1H-indazole-5-carboxamide]
- IC50: 113 nM

SMILES: Cc1cc(-c2n[nH]c3ccc(C(=O)NC4CCCC(CO)(Cc5ccc(F)cc5)C4)cc23)ccn1 (stereo not drawn) [compound 135, N-[3-[(4-fluorophenyl)methyl]-3-(hydroxymethyl)cyclohexyl]-3-(2-methyl-4-pyridinyl)-1H-indazole-5-carboxamide]
- IC50: 357 nM

SMILES: Cc1cc(-c2n[nH]c3ccc(C(=O)NC4CCCC(Oc5ccccc5Cl)C4)cc23)ccn1 (single isomer, unassigned) [compound 30, N-[3-(2-chlorophenoxy)cyclohexyl]-3-(2-methyl-4-pyridinyl)-1H-indazole-5-carboxamide]
- IC50: 38.6 nM

SMILES: CC(C)Oc1cc(-c2n[nH]c3ccc(C(=O)NN4CCCC4CCc4ccccc4)cc23)ccn1 (stereo not drawn) [compound 146, 3-[2-(1-methylethoxy)-4-pyridinyl]-N-[2-(2-phenylethyl)-1-pyrrolidinyl]-1H-indazole-5-carboxamide]
- IC50: 1000 nM

SMILES: Cc1cc(-c2n[nH]c3ccc(C(=O)NN4CCCC(Oc5ccccc5Cl)C4)cc23)ccn1 (stereo not drawn) [compound 36, N-[3-(2-chlorophenoxy)-1-piperidinyl]-3-(2-methyl-4-pyridinyl)-1H-indazole-5-carboxamide]
- IC50: 40.4 nM

SMILES: CC(C)Oc1ccc(-c2n[nH]c3ccc(C(=O)NN4CCCC4CCc4ccccc4)cc23)cn1 (stereo not drawn) [compound 144, 3-[6-(1-methylethoxy)-3-pyridinyl]-N-[2-(2-phenylethyl)-1-pyrrolidinyl]-1H-indazole-5-carboxamide]
- IC50: 497 nM

SMILES: Cc1cc(-c2n[nH]c3ccc(C(=O)NC4CCCC(Cn5cnc6cccnc65)C4)cc23)ccn1 (stereo not drawn) [compound 118, N-[3-(3H-imidazo[4,5-b]pyridin-3-ylmethyl)cyclohexyl]-3-(2-methyl-4-pyridinyl)-1H-indazole-5-carboxamide]
- IC50: 60.8 nM

SMILES: Cc1cc(-c2n[nH]c3ccc(C(=O)NN4CCCC(CO)(Oc5ccc(F)cc5)C4)cc23)ccn1 (stereo not drawn) [compound 148, N-[3-(4-fluorophenoxy)-3-(hydroxymethyl)-1-piperidinyl]-3-(2-methyl-4-pyridinyl)-1H-indazole-5-carboxamide]
- IC50: 445 nM

SMILES: Cc1cc(-c2n[nH]c3ccc(C(=O)NC4CCCC(Cn5c(C)nc6cnccc65)C4)cc23)ccn1 (stereo not drawn) [compound 116, N-[3-[(2-methyl-1H-imidazo[4,5-c]pyridiN-1-yl)methyl]cyclohexyl]-3-(2-methyl-4-pyridinyl)-1H-indazole-5-carboxamide]
- IC50: 1000 nM

SMILES: Cc1cc(-c2n[nH]c3ccc(C(=O)NC4CCCC(CO)(Oc5ccccc5)C4)cc23)ccn1 (stereo not drawn) [compound 41, N-[3-(hydroxymethyl)-3-phenoxycyclohexyl]-3-(2-methyl-4-pyridinyl)-1H-indazole-5-carboxamide]
- IC50: 98.9 nM

SMILES: Cc1cc(-c2n[nH]c3ccc(C(=O)N[C@@H]4CCC[C@](O)(Cn5ncc6ccncc65)C4)cc23)ccn1 (relative stereo) [compound 74, N-[trans-3-hydroxy-3-(1H-pyrazolo[3,4-c]pyridin-1-ylmethyl)cyclohexyl]-3-(2-methyl-4-pyridinyl)-1H-indazole-5-carboxamide]
- IC50: 792 nM

SMILES: Cc1cc(-c2n[nH]c3ccc(C(=O)NC4CCCC(CO)(Oc5cccc(F)c5)C4)cc23)ccn1 (single isomer, unassigned) [compound 43, N-[3-(3-fluorophenoxy)-3-(hydroxymethyl)cyclohexyl]-3-(2-methyl-4-pyridinyl)-1H-indazole-5-carboxamide]
- IC50: 13.4 nM

SMILES: Cc1cc(-c2n[nH]c3ccc(C(=O)N[C@H]4CCC[C@@](O)(Cn5cc6c(F)cccc6n5)C4)cc23)ccn1 (relative stereo) [compound 97, N-[trans-3-[(4-fluoro-2H-indazol-2-yl)methyl]-3-hydroxycyclohexyl]-3-(2-methyl-4-pyridinyl)-1H-indazole-5-carboxamide]
- IC50: 1000 nM

SMILES: CC(C)Oc1ccc(-c2n[nH]c3ccc(C(=O)N[C@@H]4CCC[C@](O)(Cc5ccccc5F)C4)cc23)cn1 [compound 17, N-[3-(S)-[(2-fluorophenyl)methyl]-3-hydroxy-1(R)-cyclohexyl]-3-[6-(1-methylethoxy)-3-pyridinyl]-1H-indazole-5-carboxamide]
- IC50: 44.9 nM

SMILES: Cn1cc2cc(-c3n[nH]c4ccc(C(=O)N[C@@H]5CCC[C@](O)(Cn6cccn6)C5)cc34)ccc2n1 (relative stereo) [compound 59, N-[trans-3-hydroxy-3-(1H-pyrazol-1-ylmethyl)cyclohexyl]-3-(2-methyl-2H-indazol-5-yl)-1H-indazole-5-carboxamide]
- IC50: 67.4 nM

SMILES: Cc1cc(-c2n[nH]c3ccc(C(=O)NC4CCCC(Cn5cc6ccccc6n5)C4)cc23)ccn1 (stereo not drawn) [compound 122, N-[3-(2H-indazol-2-ylmethyl)cyclohexyl]-3-(2-methyl-4-pyridinyl)-1H-indazole-5-carboxamide]
- IC50: 14.3 nM
